Measured values reported in article PMC10112710 (Nature, 2022).
Where a chain is given by its changes, count along the chain named.

Experiments:
[1] = molecular target: T1, Drosophila Sestrin (Drosophila melanogaster, UniProt A0A0B4LGG4, L431E); experiment: [3H]-leucine binding on immunopurified HA-tagged Sestrin; settings: pH 7.4, on ice, 1 h; labelled compound; no binding detected
T1 sequence (A0A0B4LGG4 1-467 L431E): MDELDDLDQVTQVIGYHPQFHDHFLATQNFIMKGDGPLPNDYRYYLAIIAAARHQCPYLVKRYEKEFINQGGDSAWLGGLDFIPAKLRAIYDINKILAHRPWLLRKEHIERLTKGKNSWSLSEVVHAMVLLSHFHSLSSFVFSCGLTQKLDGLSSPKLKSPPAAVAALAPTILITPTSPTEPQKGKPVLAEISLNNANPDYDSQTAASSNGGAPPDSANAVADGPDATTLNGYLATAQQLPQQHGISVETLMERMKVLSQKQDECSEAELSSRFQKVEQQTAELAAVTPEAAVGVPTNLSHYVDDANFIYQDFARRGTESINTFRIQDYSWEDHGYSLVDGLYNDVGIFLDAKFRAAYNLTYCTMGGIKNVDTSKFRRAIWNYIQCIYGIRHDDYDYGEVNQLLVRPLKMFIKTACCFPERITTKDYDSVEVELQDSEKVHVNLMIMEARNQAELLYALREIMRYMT

[2] = molecular target: T2, Drosophila Sestrin (Drosophila melanogaster, UniProt A0A0B4LGG4); format: binding; settings: pH 7.4, on ice, 1 h; 150 mM KCl, 2.5 mM MgCl2, 0.1% Triton; Kd derived from IC50
T2 sequence (A0A0B4LGG4 1-467): T1 sequence (A0A0B4LGG4 1-467 L431E) with E431L

**Q.** CC(C)C[C@H](N)C(=O)O [leucine] was tested. Which does not bind [1] did it give?
**A.** The does not bind was “fly Sestrin L431E does not bind leucine (Fig. 1b)”.

**Q.** And the Kd [2]?
**A.** The Kd was ~100 µM.
